From the supplement of paper PMC10307832

How the values were obtained:
Test in all cases: relative viability (nuclei count vs DMSO), 5 days (fraction); higher = more cells survive
[1] = compound: C1=CC=C(C(=C1)C2=CC=C(C=C2)C3=CSC4=C3C(=C(C(=O)N4)C#N)O)O + Cc1nc(Nc2ncc(C(=O)Nc3c(C)cccc3Cl)s2)cc(N2CCN(CCO)CC2)n1 [Dasatinib] (partner 0.075 µM)
How it was run: (§1)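 Relative viability divides the nuclei count in treated wells by that in vehicle wells. Lung cancer cell lines were seeded in 1536-well plates, dosed by pin tool the next day, and fixed and stained after 5 days in one step with final 0.05% Triton X-100, 1% formaldehyde and 1 ug/ml Hoechst. Dosing was a single drug or a fixed anchor-drug dose plus five library-drug doses (not always all listed) in √10 steps, and values are medians of duplicate plates imaged at 4×.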

TGX 221 + Dasatinib = compound: CC1=CN2C(=O)C=C(N=C2C(=C1)C(C)NC3=CC=CC=C3)N4CCOCC4 [TGX 221] + Cc1nc(Nc2ncc(C(=O)Nc3c(C)cccc3Cl)s2)cc(N2CCN(CCO)CC2)n1 [Dasatinib] (partner 0.075 µM)
How it was run: as §1

TGX 221 + Pictilisib = compound: CC1=CN2C(=O)C=C(N=C2C(=C1)C(C)NC3=CC=CC=C3)N4CCOCC4 [TGX 221] + CS(=O)(=O)N1CCN(Cc2cc3nc(-c4cccc5[nH]ncc45)nc(N4CCOCC4)c3s2)CC1 [Pictilisib] (partner 1 µM)
How it was run: as §1

TGX 221 + AZD7762 = compound: CC1=CN2C(=O)C=C(N=C2C(=C1)C(C)NC3=CC=CC=C3)N4CCOCC4 [TGX 221] + NC(=O)Nc1cc(-c2cccc(F)c2)sc1C(=O)N[C@H]1CCCNC1 [AZD7762] (partner 0.2 µM)
How it was run: as §1

| Cell Line | relative viability ([1]; first compound 0.08 µM) | relative viability ([1]; first compound 0.253 µM) | relative viability ([1]; first compound 0.8 µM) | relative viability ([1]; first compound 2.53 µM) | relative viability ([1]; first compound 8 µM) | relative viability (TGX 221 + Dasatinib; first compound 0.08 µM) | relative viability (TGX 221 + Dasatinib; first compound 0.253 µM) | relative viability (TGX 221 + Dasatinib; first compound 0.8 µM) | relative viability (TGX 221 + Dasatinib; first compound 2.53 µM) | relative viability (TGX 221 + Dasatinib; first compound 8 µM) | relative viability (TGX 221 + Pictilisib; first compound 0.08 µM) | relative viability (TGX 221 + Pictilisib; first compound 0.253 µM) | relative viability (TGX 221 + Pictilisib; first compound 0.8 µM) | relative viability (TGX 221 + Pictilisib; first compound 2.53 µM) | relative viability (TGX 221 + Pictilisib; first compound 8 µM) | relative viability (TGX 221 + AZD7762; first compound 0.08 µM) | relative viability (TGX 221 + AZD7762; first compound 0.253 µM) | relative viability (TGX 221 + AZD7762; first compound 0.8 µM) | relative viability (TGX 221 + AZD7762; first compound 2.53 µM) | relative viability (TGX 221 + AZD7762; first compound 8 µM) |
| --- | --- | --- | --- | --- | --- | --- | --- | --- | --- | --- | --- | --- | --- | --- | --- | --- | --- | --- | --- | --- |
| UMC-11 | 0.328 | 0.432 | 0.573 | 0.524 | 0.374 | 0.481 | 0.437 | 0.436 | 0.535 | 0.492 | 0.742 | 0.783 | 0.787 | 0.723 | 0.831 |  |  |  |  |  |
| NCI-H1755 | 0.396 | 0.466 | 0.349 | 0.368 | 0.423 | 0.406 | 0.371 | 0.366 | 0.317 | 0.317 | 0.412 | 0.381 | 0.406 | 0.372 | 0.425 | 0.338 | 0.391 | 0.399 | 0.409 | 0.371 |
| SK-LU-1 | 0.172 | 0.198 | 0.161 | 0.198 | 0.196 | 0.203 | 0.181 | 0.165 | 0.129 | 0.128 | 0.601 | 0.536 | 0.576 | 0.553 | 0.568 |  |  |  |  |  |
| NCI-H1793 | 0.356 | 0.354 | 0.419 | 0.4 | 0.326 | 0.344 | 0.289 | 0.363 | 0.48 | 0.381 | 0.274 | 0.303 | 0.317 | 0.413 | 0.291 | 0.295 | 0.303 | 0.313 | 0.347 | 0.266 |
| NCI-H647 | 0.153 | 0.189 | 0.191 | 0.183 | 0.1 | 0.189 | 0.145 | 0.15 | 0.163 | 0.136 | 0.407 | 0.404 | 0.406 | 0.37 | 0.412 | 0.324 | 0.448 | 0.407 | 0.278 | 0.328 |
| NCI-H1975 | 0.327 | 0.369 | 0.345 | 0.333 | 0.37 | 0.347 | 0.335 | 0.318 | 0.345 | 0.343 | 0.282 | 0.289 | 0.271 | 0.229 | 0.285 | 0.688 | 0.694 | 0.668 | 0.662 | 0.557 |
| NCI-H1648 |  |  |  |  |  |  |  |  |  |  |  |  |  |  |  |  | 0.784 | 0.793 | 0.628 | 0.672 |
| NCI-H2126 | 0.588 | 0.573 | 0.604 | 0.45 | 0.568 | 0.512 | 0.61 | 0.615 | 0.578 | 0.585 | 0.452 | 0.498 | 0.488 | 0.458 | 0.518 | 0.943 | 0.907 | 1.04 | 0.966 | 1.15 |
| EBC-1 |  |  |  |  |  |  |  |  |  |  | 0.331 | 0.366 | 0.369 | 0.291 | 0.304 |  |  |  |  |  |
| NCI-H2228 | 0.511 | 0.476 | 0.567 | 0.606 | 0.475 | 0.508 | 0.471 | 0.517 | 0.474 | 0.398 | 0.348 | 0.452 | 0.448 | 0.282 | 0.314 |  |  |  |  |  |
| SK-MES-1 | 0.391 | 0.334 | 0.309 | 0.274 | 0.359 | 0.315 | 0.275 | 0.305 | 0.223 | 0.162 | 0.406 | 0.363 | 0.304 | 0.328 | 0.289 |  |  |  |  |  |
| NCI-H522 | 0.849 | 0.761 | 0.957 | 0.829 | 0.837 | 0.834 | 0.81 | 0.851 | 0.843 | 0.826 |  |  |  |  |  | 0.771 | 0.81 | 0.888 | 0.871 | 0.904 |
| Calu-6 |  |  |  |  |  |  |  |  |  |  | 0.953 | 0.889 | 0.86 | 0.922 | 0.896 |  |  |  |  |  |
| NCI-H1703 |  |  |  |  |  |  |  |  |  |  | 0.234 | 0.264 | 0.251 | 0.202 | 0.234 | 0.129 | 0.12 | 0.12 | 0.116 | 0.146 |
| NCI-H2023 | 0.444 | 0.521 | 0.648 | 0.55 | 0.433 | 0.481 | 0.481 | 0.592 | 0.537 | 0.407 | 0.23 | 0.244 | 0.252 | 0.215 | 0.228 |  |  |  |  |  |
| HCC-44 |  |  |  |  |  |  |  |  |  |  | 0.648 | 0.571 | 0.615 | 0.555 | 0.541 | 0.992 | 1.04 | 1.02 | 1.1 | 1.09 |
| COR-L 105 | 0.337 | 0.301 | 0.272 | 0.302 | 0.309 | 0.286 | 0.252 | 0.264 | 0.406 | 0.23 | 0.458 | 0.412 | 0.424 | 0.469 | 0.421 |  |  |  |  |  |
| COR-L23 | 0.492 | 0.48 | 0.61 | 0.548 | 0.272 | 0.483 | 0.457 | 0.538 | 0.488 | 0.431 | 0.746 | 0.713 | 0.757 | 0.771 | 0.892 |  |  |  |  |  |
| NCI-H520 | 0.193 | 0.179 | 0.258 | 0.202 | 0.212 | 0.215 | 0.202 | 0.156 | 0.16 | 0.159 | 0.335 | 0.237 | 0.276 | 0.251 | 0.296 |  |  |  |  |  |
| A549 |  |  |  |  |  |  |  |  |  |  | 0.485 | 0.496 | 0.46 | 0.494 | 0.396 |  |  |  |  |  |
| SW 1573 | 0.498 | 0.618 | 0.662 | 0.666 | 0.369 | 0.402 | 0.501 | 0.403 | 0.406 | 0.574 | 0.489 | 0.458 | 0.43 | 0.461 | 0.467 |  |  |  |  |  |
| NCI-H661 | 0.771 | 0.916 | 1.07 | 0.834 | 0.801 | 0.945 | 0.831 | 0.803 | 0.876 | 0.828 | 0.388 | 0.464 | 0.403 | 0.323 | 0.355 |  |  |  |  |  |
| SW 900 | 0.596 | 0.937 | 0.594 | 0.361 | 0.531 | 0.461 | 0.444 | 0.383 | 0.39 | 0.254 |  |  |  |  |  |  | 0.598 | 0.515 | 0.444 | 0.469 |
| IA-LM |  |  |  |  |  |  |  |  |  |  | 0.276 |  | 0.423 | 0.288 | 0.412 |  |  |  |  |  |
